Active and inactive are the calls of the source. The rule behind the calls is not given here.
How the values were obtained:
[1] = biological target: T1, Tyrosinase (Agaricus bisporus, UniProt O42713); experiment: (§1) Inhibition of mushroom tyrosinase monophenolase activity using L-tyrosine as substrate measured every 60 s for 25 times
T1 sequence (O42713 whole entry): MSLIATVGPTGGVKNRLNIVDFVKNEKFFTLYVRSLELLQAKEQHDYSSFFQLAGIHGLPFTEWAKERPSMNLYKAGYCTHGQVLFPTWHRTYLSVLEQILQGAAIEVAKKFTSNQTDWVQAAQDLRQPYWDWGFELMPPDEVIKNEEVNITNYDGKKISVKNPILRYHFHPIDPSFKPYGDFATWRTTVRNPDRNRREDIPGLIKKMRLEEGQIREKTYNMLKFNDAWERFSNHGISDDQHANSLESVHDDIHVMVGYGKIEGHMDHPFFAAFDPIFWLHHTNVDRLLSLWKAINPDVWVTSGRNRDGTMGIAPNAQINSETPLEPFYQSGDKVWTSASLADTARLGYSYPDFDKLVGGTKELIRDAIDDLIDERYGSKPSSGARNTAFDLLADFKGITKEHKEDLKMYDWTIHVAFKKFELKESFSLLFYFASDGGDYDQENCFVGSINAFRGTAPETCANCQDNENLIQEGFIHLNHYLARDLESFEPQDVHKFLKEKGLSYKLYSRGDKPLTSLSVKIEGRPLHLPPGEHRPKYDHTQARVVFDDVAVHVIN

[2] = biological target: T1, Tyrosinase; experiment: (§2) Inhibition of mushroom tyrosinase diphenolase activity using L-DOPA as substrate measured every 30 s for 25 times
[3] = biological target: T1, Tyrosinase; experiment: Inhibition of mushroom tyrosinase using L-tyrosine as substrate assessed as dopachrome formation preincubated for 10 mins followed by protein addition measured after 20 mins by microplate reader analysis
[4] = biological target: T2, Tyrosinase (Agaricus bisporus) (UniProt O42713); experiment: as §1
T2 sequence (whole entry): T1 sequence (O42713 whole entry)

[5] = biological target: T2, Tyrosinase (Agaricus bisporus); experiment: Ratio of IC50 for mushroom tyrosinase diphenolase activity using L-DOPA as substrate to IC50 for mushroom tyrosinase monophenolase activity using L-tyrosine as substrate
[6] = biological target: T2, Tyrosinase (Agaricus bisporus); experiment: as §2
[7] = biological target: T1, Tyrosinase; experiment: Inhibition of mushroom tyrosinase using L-DOPA as substrate preincubated for 5 mins followed by substrate addition measured for 2 mins by spectrophotometric analysis
[8] = biological target: T2, Tyrosinase (Agaricus bisporus); experiment: Potency index, ratio of IC50 for benzoic acid to IC50 for test compound for inhibition of mushroom tyrosinase monophenolase activity
[9] = biological target: T2, Tyrosinase (Agaricus bisporus); experiment: Non-competitive inhibition of mushroom tyrosinase monophenolase activity using L-tyrosine as substrate at 5 to 10 uM measured every 60 s for 25 times by Lineweaver-Burk plot analysis
[10] = biological target: T2, Tyrosinase (Agaricus bisporus); experiment: Mixed-type inhibition of mushroom tyrosinase diphenolase activity using L-DOPA as substrate at 3 to 30 uM measured every 30 s for 25 times by Lineweaver-Burk plot analysis

Structure (SMILES) | IC50 [1] [µM] | IC50 [2] [µM] | inhibition [4] | Ratio IC50 [5] | other results
O=C(O)c1ccccc1-c1ccccc1 | > 1000 | > 1000 |  |  | 
Nc1ccc(C(=O)O)cc1 [AMINOBENZOIC ACID] |  |  |  |  | IC50 [3]: 3.8 µM
O=C(O)c1ccc(-c2ccccc2)cc1 | 63.2 | 216 | Dose-dependent effect | 3.42 | 
CCOC(=O)c1cccc(-c2ccccc2)c1 |  |  | inactive |  | inhibition [6]: inactive
O=C(O)c1ccccc1 [BENZOIC ACID] | 224 | 822 |  | 3.66 | IC50 [7]: 710 µM
COc1ccc(C(=O)O)cc1 [p-ANISIC ACID] |  |  |  |  | IC50 [3]: 420 µM
O=C(O)c1cccc(-c2ccccc2)c1 | 6.97 | 36.3 | Dose-dependent effect | 5.21 | Ratio IC50 [8]: 30; inhibition [9]: Active; inhibition [10]: Active
